CC(=O)Nc1ccc(O)cc1
solubility (mole fraction)
Conditions | 298.15 K | 303.15 K | 308.15 K | 313.15 K | 318.15 K | 323.15 K | 328.15 K | 333.15 K
in transcutol | 0.111 | 0.118 | 0.126 | 0.134 | 0.144 | 0.153 | 0.166 | 0.178
in water | 0.0016 | 0.0019 | 0.0023 | 0.0027 | 0.0033 | 0.004 | 0.0047 | 0.0055

Source: BigSolDB 2.1
